The text below walks through data of patent US20210238173A1, “MITOGEN-ACTIVATED PROTEIN KINASE KINASE 7 INHIBITORS” (Yeda Research and Development Co. Ltd., priority 2018, published 2021).

Several values for one entry are separate records, joined by “and”; a condition that tells them apart may be missing. Identical values can stand only once. Where only a bound is given, the exact number is not on record here.

For orientation: IC50 means the concentration that inhibits the measured activity by half. In general, EC50 refers to the midpoint of the concentration-response curve. The term half-life denotes how long it takes for the measured level to halve.

One series has as its target T1, MKK4 (Homo sapiens, UniProt P45985).
T1 construct: purchased Nanosyn (contract assay)
T1 sequence (P45985 1-399): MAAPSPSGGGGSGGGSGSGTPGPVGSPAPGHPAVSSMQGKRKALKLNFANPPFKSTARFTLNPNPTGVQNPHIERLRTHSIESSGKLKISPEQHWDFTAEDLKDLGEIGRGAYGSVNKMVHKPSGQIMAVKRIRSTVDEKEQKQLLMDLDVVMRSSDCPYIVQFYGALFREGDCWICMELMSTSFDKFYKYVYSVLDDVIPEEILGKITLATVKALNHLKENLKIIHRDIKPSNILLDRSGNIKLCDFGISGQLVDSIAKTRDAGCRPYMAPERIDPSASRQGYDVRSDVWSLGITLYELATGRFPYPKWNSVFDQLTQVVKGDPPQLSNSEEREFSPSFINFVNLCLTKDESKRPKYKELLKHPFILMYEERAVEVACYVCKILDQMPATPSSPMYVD
As to the kind of experiment: In vitro activity assay for MKK4 (Nanosyn). The series is classed as biochemical. Here is the method:
In Vitro Activity Assays for MKK7 or MKK4 (Carried by Nanosyn):
Exemplary test compounds, according to some embodiments of the present invention, were diluted in DMSO to a final concentration that ranged from 10 μM to 0.0565 nM, while final concentration of DMSO in all assays was kept at 1%. Reference compound, Staurosporine, was tested in a similar manner. […] After incubation, activity of now activated JNK1 was tested in the presence of 30 μM ATP ATP for 17 h (MKK7) or 4 h (MKK4).

The subject of the next series is pJNK in HEK293 cells. As to the kind of experiment: In-cell western (ICW) pJNK inhibition in HEK293. The series is classed as cell-based. Conditions: 2 h pre-incubation, sorbitol stimulation.
In a further series the target is T2, MKK7 (Homo sapiens, UniProt O14733).
T2 construct: MKK7 isoform 1 (103-426 residues) with a C-terminal 6-His tag; 6-His (C); made in house; host or cells: E. coli Rosetta2 (DE3) pLysS
T2 sequence (O14733 103-426 isoform O14733-3): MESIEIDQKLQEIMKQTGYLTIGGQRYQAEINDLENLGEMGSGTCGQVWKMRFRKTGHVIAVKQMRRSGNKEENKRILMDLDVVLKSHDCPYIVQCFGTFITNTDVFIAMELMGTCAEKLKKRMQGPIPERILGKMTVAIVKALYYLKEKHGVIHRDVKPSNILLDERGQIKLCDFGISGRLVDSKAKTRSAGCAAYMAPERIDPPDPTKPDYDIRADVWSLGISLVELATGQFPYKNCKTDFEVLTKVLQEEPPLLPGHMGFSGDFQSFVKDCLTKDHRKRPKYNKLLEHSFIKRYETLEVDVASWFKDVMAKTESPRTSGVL
As to the kind of experiment: Intact protein mass spectrometry covalent labeling. The series is classed as binding. To be noted: 4° C., molecule 20 μM, protein 10 μM. Here is the method:
Intact Protein Mass Spectrometry:
Samples were injected after indicated incubation times into LC/MS (Waters ACUITY UPLC class H), in positive ion mode using electrospray ionization. C4 column (300 Å, 1.7 μM, […]×100 mm) was held at 40° C., and the autosampler at 10° C. Desolvation temperature was 500° C. with flow rate of 1000 liter/hour. The voltage used were 0.69 kV for the capillary and 46 V for the cone. Spectra were deconvoluted using MaxEnt1 software.
After 1 hour or 16 hours incubation at 4° C.

Series [1] in a line: Metabolic stability in mouse liver microsomes. The series is classed as in vitro ADME. To be noted: for half-life: mouse, liver microsomes. An excerpt:
(§1) A reference compound, REF1250, was used in this study: […]
Background: Liver microsomes are vesicles of endoplasmic reticulum, rich in cytochrome P450 enzymes.

The nature of series [2]: Metabolic stability in rat liver microsomes. It is filed as in vitro ADME. To be noted: for half-life: rat, liver microsomes.
Description: as §1

Series [3] in a line: Metabolic stability in monkey liver microsomes. The series is classed as in vitro ADME.
Description: as §1

Series [4] in a line: Metabolic stability in human liver microsomes. The series is classed as in vitro ADME. To be noted: for half-life: human, liver microsomes.
Description: as §1

Turning to `C=CC(=O)Nc1cccc(-c2n[nH]c3c2CCCC3)c1` [GO4], 4.13 µM corresponded to half-maximal inhibition against MKK4 (IC50). The EC50 in the series with pJNK in HEK293 cells (HEK293, ICW) came out at 5.2 µM. For the same compound, the figures for the covalent labeling on MKK7 (1 hour) and on MKK7 (16 hours) were 65.16% and 95.15%, respectively. The “% remaining @ 40 min” value in series [1], in series [2], in series [3] and in series [4] was 0% in each case. In addition, the half-life in series [1], in series [2], in series [3] and in series [4] was below 5 min throughout.

Turning to `C=CC(=O)Nc1cccc(-c2n[nH]c3ccccc23)c1` [GO32], the IC50 against MKK4 came to 4.15 µM. The compound further had an EC50 with pJNK in HEK293 cells (HEK293, ICW) of 2.06 µM. The covalent labeling on MKK7 (1 hour) was determined as 78.14%; on MKK7 (16 hours), 96.29%. Further, the “% remaining @ 40 min” value in series [1], in series [2], in series [3] and in series [4] was 0% throughout. The half-life in series [1], in series [2], in series [3] and in series [4] was below 5 min each time.

`C=CC(=O)Nc1cccc(-c2n[nH]c3cc(C)ccc23)c1` [GO80] yielded an IC50 on MKK4 of 7.81 µM. Further, the EC50 in the series with pJNK in HEK293 cells (HEK293, ICW) is 1.3 µM and 0.8 µM; with pJNK in HEK293 cells (Homo sapiens, HEK293, HEK293, ICW) it was 1.26 µM. Besides, the covalent labeling on MKK7 (1 hour) is 59.58%; on MKK7 (16 hours), 92.87%. For the same compound, the “% remaining @ 40 min” value in series [1] was 0%; in series [2] it was 1%; in series [3], 0%; in series [4], 0%. For the same compound, the half-life in series [1] is below 5 min; in series [2], 6 min; in series [3], below 5 min; in series [4], below 5 min.
